In series [1] the test system is Escherichia coli. Put plainly: microbe, parasite or virus in culture.
Series [2] can be described thus: NIH-3T3 fibroblast cytotoxicity, dose response, cytotoxicity control, cell-based, fluorescence, Alamar Blue, secondary assay (AID 2327).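 Further: NIH-3T3 mouse fibroblasts cultured with fluconazole at 8 µg/mL.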 It counts as functional. For orientation: The colour change of resazurin is a common sign of viable cells or microbes.
The nature of series [3]: HepG2 cell cytotoxicity, dose response, cytotoxicity control for Shn3 inhibitor project, CellTiter-Glo, cherry-picked (AID 624134). The class given is functional, cell-based. For orientation: In ATP-based viability assays light output follows the ATP content of the culture.
Series [4] concerns HEK293. The series is described as follows: cells. Conditions: Homo sapiens.
The nature of series [5]: control 3'UTR Renilla luciferase suppression, dose response, counter-screen for Shn3 inhibitor project, cell-based, Clone20-Shn3RL, cherry-picked (AID 624133). The class given is functional. On the technique in general: Counterscreens check selectivity or assay interference.
Series [6] is described as follows: Shn3 3'UTR reporter inhibitors, dose response, cell-based, Clone20 osteoblasts, firefly luciferase, cherry-picked (AID 624132).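 Further: firefly luciferase luminescence from reporter carrying the Shn3 3'UTR in osteoblasts.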 It counts as functional.
Series [7] deals with HEK293. Put plainly: cells. Conditions: Homo sapiens. This is another data set of the same source.
Series [8] is described as follows: C. albicans growth with fluconazole, confirmation, fluorescence, retest (AID 2467). It counts as functional, cell-based.
Series [9] concerns the target T1, Hexokinase HKDC1 (Homo sapiens, UniProt Q2TB90).
T1 sequence (Q2TB90 whole entry): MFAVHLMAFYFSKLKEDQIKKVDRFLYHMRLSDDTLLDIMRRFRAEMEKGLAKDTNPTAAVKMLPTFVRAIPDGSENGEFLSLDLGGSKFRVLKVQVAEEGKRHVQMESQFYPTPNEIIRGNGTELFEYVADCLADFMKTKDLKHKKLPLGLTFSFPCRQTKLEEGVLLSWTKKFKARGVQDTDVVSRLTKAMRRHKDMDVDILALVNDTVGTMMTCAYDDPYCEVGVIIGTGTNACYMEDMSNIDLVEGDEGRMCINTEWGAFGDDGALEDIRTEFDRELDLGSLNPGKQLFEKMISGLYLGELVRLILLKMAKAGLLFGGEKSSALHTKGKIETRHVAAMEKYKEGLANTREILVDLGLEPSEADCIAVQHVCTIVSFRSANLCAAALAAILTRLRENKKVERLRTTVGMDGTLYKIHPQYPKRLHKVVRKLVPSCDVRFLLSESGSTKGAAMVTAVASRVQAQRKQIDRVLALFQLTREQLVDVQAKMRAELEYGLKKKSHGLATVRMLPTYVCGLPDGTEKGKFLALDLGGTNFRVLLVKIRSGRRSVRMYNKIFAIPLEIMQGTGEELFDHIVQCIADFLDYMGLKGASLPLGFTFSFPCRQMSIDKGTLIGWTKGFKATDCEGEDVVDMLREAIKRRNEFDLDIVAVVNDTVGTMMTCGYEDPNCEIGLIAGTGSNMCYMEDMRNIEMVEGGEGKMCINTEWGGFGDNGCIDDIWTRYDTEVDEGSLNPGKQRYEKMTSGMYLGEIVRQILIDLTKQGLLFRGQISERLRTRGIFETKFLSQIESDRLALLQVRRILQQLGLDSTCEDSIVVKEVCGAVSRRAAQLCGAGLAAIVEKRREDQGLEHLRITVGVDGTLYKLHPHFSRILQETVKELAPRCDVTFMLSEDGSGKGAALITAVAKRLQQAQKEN
The series is described as follows: HKDC1 hexokinase inhibitors, SAR follow-up, biochemical, set 2 (AID 588355). The class given is functional.

In series [10] the target is Hexokinase-1 (Homo sapiens, UniProt P19367). Put plainly: HK1 enzyme inhibition by HKDC1 hits, SAR follow-up, selectivity assay for HKDC1 inhibitor project, biochemical, set 2, resazurin fluorescence coupled readout (AID 588356). The class given is functional.
Chain of Hexokinase-1 (P19367 whole entry): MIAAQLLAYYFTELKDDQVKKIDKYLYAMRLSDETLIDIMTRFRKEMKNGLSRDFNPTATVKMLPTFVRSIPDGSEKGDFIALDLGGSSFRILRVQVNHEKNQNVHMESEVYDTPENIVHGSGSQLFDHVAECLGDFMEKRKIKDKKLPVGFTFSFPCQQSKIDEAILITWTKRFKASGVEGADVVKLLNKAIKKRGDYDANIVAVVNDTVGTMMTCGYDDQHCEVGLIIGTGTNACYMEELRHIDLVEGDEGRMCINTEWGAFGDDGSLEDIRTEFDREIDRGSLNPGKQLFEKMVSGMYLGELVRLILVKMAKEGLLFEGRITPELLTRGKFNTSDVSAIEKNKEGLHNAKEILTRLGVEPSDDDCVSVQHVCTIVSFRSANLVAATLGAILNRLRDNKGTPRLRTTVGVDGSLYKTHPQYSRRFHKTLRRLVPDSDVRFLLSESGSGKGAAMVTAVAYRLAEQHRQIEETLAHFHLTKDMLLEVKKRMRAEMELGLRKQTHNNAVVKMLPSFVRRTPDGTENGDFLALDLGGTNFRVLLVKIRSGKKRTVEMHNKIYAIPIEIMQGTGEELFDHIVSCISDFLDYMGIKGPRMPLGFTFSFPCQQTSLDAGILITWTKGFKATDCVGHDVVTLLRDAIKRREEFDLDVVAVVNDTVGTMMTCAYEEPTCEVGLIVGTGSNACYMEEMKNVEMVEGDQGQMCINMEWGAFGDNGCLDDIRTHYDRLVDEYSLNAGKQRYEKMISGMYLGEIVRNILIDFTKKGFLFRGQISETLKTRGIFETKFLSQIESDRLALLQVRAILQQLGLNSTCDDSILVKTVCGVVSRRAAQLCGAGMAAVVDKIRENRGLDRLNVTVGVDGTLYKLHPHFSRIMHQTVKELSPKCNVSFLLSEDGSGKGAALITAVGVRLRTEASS
The target in series [11] is T2, Cytochrome P450 1A2 (Homo sapiens, UniProt P05177).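 Further: PubChem cytochrome P450 panel assay, CYP1A2 panel member.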
T2 sequence (P05177 whole entry): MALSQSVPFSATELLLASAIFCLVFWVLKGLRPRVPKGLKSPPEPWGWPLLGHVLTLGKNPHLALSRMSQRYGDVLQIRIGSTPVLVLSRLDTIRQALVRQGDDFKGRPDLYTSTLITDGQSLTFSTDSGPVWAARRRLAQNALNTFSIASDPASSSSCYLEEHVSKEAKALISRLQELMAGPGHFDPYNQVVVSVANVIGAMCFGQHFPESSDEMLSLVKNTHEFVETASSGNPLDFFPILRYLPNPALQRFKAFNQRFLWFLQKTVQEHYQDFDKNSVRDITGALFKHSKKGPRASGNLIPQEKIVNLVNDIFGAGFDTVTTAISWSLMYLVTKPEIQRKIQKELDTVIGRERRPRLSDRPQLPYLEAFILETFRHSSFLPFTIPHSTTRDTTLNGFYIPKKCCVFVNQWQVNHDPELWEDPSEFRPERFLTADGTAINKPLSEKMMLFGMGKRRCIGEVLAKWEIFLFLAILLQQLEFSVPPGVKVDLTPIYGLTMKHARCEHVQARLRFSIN

In series [12] the target is Cytochrome P450 2D6 (Homo sapiens, UniProt P10635).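 Further: CYP2D6 member of a cytochrome P450 panel assay.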
Chain of Cytochrome P450 2D6 (P10635 whole entry): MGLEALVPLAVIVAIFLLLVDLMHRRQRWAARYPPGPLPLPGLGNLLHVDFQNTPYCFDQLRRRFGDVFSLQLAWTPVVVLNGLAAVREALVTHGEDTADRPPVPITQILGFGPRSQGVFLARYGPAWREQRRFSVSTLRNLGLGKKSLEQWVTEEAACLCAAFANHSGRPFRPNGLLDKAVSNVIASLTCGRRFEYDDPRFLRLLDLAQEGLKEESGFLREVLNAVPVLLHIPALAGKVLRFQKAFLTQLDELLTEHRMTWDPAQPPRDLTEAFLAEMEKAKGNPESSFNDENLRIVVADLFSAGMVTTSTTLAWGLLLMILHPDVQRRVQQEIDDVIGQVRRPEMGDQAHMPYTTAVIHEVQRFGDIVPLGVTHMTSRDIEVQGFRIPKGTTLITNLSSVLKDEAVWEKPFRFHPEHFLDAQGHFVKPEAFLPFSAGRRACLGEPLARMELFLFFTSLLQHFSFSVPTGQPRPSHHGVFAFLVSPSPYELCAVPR
The target of series [13] is Cytochrome P450 2C19 (Homo sapiens, UniProt P33261). Put plainly: Cytochrome panel assay with activity outcomes. Panel member name: p450-cyp2c19 Compounds with AC50 equal or less than 10 uM are considered active. The class given is functional.
Chain of Cytochrome P450 2C19 (P33261 whole entry): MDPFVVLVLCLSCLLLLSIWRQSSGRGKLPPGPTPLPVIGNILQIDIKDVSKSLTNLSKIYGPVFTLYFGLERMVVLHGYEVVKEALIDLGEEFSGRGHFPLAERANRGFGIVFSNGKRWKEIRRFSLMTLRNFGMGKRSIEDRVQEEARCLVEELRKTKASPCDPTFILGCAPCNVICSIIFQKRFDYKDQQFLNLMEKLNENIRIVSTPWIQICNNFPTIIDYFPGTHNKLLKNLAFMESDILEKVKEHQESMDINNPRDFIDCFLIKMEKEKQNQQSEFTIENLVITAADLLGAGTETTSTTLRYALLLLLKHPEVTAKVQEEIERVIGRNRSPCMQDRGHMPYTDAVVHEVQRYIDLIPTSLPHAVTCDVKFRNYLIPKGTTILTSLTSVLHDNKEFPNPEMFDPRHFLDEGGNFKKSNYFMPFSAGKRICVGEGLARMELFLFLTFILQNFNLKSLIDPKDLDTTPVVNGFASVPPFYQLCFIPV
A short description of series [14]: THP-1 cell cytotoxicity, dose response, cytotoxicity control for non-replicating M. tuberculosis project (AID 489025). It counts as functional.
In series [15] the target is Dual specificity tyrosine-phosphorylation-regulated kinase 1A (Rattus norvegicus, UniProt Q63470). It counts as biochemical, Homo sapiens.
Series [16] relates to H9c2. Put plainly: cells. Conditions: Rattus norvegicus, H9c2, Myocardium. The class given is functional, cell-based.
Series [17] deals with T3, High affinity choline transporter 1 (Homo sapiens, UniProt Q9GZV3).
T3 sequence (Q9GZV3 whole entry): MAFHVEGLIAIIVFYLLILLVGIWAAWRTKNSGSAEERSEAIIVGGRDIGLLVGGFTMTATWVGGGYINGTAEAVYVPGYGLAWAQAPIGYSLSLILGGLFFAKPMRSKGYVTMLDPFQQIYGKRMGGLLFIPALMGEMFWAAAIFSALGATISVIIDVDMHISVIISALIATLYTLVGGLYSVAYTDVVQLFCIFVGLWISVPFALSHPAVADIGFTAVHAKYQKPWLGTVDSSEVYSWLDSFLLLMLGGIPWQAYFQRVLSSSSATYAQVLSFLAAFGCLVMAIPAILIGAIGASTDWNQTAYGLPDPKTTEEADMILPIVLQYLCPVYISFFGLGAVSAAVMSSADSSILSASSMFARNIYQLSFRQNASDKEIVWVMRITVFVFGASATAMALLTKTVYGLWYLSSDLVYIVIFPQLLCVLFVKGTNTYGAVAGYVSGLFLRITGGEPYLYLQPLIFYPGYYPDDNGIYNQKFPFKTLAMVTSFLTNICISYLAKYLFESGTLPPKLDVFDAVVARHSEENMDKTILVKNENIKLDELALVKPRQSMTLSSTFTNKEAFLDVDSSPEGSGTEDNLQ
Put plainly: CHT inhibitors, dose response, cell-based, 5-point CRC, membrane potential dye (AID 504840). It counts as functional.

For series [18], the target named is T4, Ubiquitin-conjugating enzyme E2 N (Homo sapiens, UniProt P61088).
T4 sequence (P61088 whole entry): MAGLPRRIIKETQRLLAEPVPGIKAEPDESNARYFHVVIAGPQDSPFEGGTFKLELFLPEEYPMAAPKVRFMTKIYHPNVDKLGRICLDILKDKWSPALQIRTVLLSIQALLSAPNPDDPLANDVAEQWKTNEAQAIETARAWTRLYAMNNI
The class given is functional.

Series [19] addresses T4, Ubiquitin-conjugating enzyme E2 N. It counts as functional. This is another data set of the same source.
Series [20] has as its target T5, Bcl-2-related protein A1 (Mus musculus, UniProt Q07440).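 Further: confirmatory dose–response counterscreen on Bfl-1, used to check hits from a UBC13 polyubiquitin inhibitor campaign.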
T5 sequence (Q07440 whole entry): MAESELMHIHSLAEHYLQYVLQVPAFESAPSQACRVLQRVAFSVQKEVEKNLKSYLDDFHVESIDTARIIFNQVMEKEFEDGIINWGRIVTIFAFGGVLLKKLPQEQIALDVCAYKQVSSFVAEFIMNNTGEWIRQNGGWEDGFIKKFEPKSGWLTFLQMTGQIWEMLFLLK
The class given is functional.

For series [21], the target named is T6, Histone-lysine N-methyltransferase NSD2 (Homo sapiens, UniProt O96028).
T6 sequence (O96028 whole entry): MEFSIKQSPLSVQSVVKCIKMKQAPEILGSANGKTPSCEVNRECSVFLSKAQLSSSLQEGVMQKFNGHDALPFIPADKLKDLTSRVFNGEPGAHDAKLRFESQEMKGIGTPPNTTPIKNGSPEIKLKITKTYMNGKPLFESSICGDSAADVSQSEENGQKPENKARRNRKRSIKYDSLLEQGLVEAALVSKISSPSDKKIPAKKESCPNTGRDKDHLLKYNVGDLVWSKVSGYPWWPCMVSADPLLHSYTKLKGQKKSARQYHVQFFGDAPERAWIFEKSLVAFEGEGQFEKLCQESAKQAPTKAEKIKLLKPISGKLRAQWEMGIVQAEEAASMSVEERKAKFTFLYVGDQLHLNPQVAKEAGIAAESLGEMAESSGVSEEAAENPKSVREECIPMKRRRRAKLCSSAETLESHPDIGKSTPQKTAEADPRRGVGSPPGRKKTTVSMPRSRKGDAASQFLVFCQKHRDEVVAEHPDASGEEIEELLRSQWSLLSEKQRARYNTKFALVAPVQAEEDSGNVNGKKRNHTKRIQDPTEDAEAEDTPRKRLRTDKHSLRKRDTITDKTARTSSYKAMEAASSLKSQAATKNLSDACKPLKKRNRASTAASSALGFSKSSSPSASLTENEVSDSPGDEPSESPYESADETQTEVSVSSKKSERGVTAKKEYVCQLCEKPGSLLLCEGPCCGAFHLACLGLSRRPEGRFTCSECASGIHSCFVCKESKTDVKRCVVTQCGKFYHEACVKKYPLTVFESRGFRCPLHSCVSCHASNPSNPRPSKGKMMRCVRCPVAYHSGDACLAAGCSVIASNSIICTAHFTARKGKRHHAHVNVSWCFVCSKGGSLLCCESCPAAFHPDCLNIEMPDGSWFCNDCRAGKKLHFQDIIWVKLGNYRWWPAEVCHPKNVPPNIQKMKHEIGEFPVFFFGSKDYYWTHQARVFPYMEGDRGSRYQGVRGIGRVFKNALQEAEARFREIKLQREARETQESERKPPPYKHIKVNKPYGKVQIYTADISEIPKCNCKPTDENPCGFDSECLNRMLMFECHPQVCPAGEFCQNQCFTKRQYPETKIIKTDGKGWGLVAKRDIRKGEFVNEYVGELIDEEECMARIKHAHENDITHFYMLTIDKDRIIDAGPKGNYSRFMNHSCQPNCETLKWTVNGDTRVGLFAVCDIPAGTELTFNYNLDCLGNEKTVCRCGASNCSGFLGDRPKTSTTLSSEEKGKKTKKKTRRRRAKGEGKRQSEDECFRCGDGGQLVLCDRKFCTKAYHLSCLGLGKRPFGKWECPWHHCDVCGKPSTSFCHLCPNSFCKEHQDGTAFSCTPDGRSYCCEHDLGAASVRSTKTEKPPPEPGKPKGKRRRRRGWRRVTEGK
The class given is biochemical.

In general, AC50 refers to the concentration at which the activity in the assay is half-maximal. The term EC50 denotes the concentration at which the effect is half-maximal. For orientation: IC50 means the concentration needed to halve the response being measured. For orientation: CC50 means the concentration that lowers cell viability or growth by half.

Activity calls are given as the source filed them. Some results are limits rather than exact numbers.

Regarding `O=C(c1ccco1)N1CCCC(c2nc(O)c3nnn(Cc4ccc(F)cc4)c3n2)C1` (configuration not stated), the AC50 in [1] was 42.9 µM (active).

On to `O=C(Oc1c(CN2CCOCC2)cc(Cl)c2cccnc12)c1ccccc1Cl`, for which the EC50 in [2] was > 160 µM (inactive); in series [4], > 59.6 µM (inactive); in series [7], > 59.6 µM (inactive); in series [8] it was 2.86 µM (active). Besides, the figures for the AC50 in series [3], in series [5] and in series [6] were 7.37 µM (active), 9.15 µM (active) and 4.59 µM (active), respectively.

`CCCCN1C(=O)C(NC(C)=O)c2cc(C)ccc21` (configuration not stated): the IC50 in [9] and in series [10] was > 80 µM (inactive) throughout.

On to `CC1=NN(c2ccccc2)C(=O)[C@@H]1/N=N\c1ccc([As](=O)(O)O)c(O)c1`, for which the AC50 is 5.01 µM (inconclusive) in [11] and “inconclusive” in series [12].

`NS(=O)(=O)c1cc(C(=O)O)c(Cl)c([N+](=O)[O-])c1Cl`: the AC50 was 1.26 µM (inconclusive) in series [11], “inconclusive” in series [12] and “inconclusive” in series [13].

Take `O=c1cc(-c2ccccc2Cl)oc2c([N+](=O)[O-])c(O)cc(O)c12`: the CC50 in series [14] was > 40 µM (active). For the same compound, the AC50 in [15] is 1.22 µM (active).

`O=C(NC1CCCCC1)C(c1ccc2ncccc2c1)N(Cc1ccccc1)C(=O)c1ccc2c(c1)OCCO2` (configuration not stated): the IC50 was > 79 µM (inactive) in series [16] and 10 µM (active) in series [17].

Take `CNCc1cc(Br)c(OCC(=O)Nc2ccccc2OC)c(OC)c1`: the values for the IC50 in series [18], in series [19] and in series [20] were 8.66 µM (active), 9.34 µM (active) and > 20 µM (inactive), respectively. For the same compound, the AC50 in series [21] is 14.7 µM (active).

Regarding `Cc1ccc2oc3c(c(=O)c2c1)C(c1cccs1)N(CCCN(C)C)C3=O` (configuration not stated), the AC50 in series [1] is 27.1 µM (active).

As to `COc1ccc(N(C(=O)c2snc(C(N)=O)c2N)C(C(=O)NC2CCCC2)c2ccco2)cc1` (configuration not stated), the IC50 in [18] was 8.84 µM (active); in [19], 8.44 µM (active); in series [20], > 20 µM (inactive).

The values are drawn from ChEMBL document CHEMBL1201862, “PubChem BioAssay data set” (2004).
